Patent US6683089B2, “N-allyoxyethyl-1,2,3,4,5,6-hexahydro-2,6-methano-3-benzazocine-10-ols” (Boehringer Ingelheim Pharma GmbH & Co. KG, priority 2002, dated 2004)
Structures can show the parent of a compound that is named as a salt.

| melting point [°C] | Compound |
| --- | --- |
| 239 | C=CCO[C@@H](C)CN1CC[C@@]2(C)c3cccc(O)c3C[C@@H]1C2(C)C (as salt: hydrochloride) |
| 205 | C/C=C/CO[C@@H](C)CN1CC[C@@]2(C)c3cccc(O)c3C[C@@H]1C2(C)C (as salt: hydrochloride) |
| 240 | C=C(C)CO[C@@H](C)CN1CC[C@@]2(C)c3cccc(O)c3C[C@@H]1C2(C)C (as salt: hydrochloride) |
